Laboratory results: US10155743B2, “Glutarimide derivatives, use thereof, pharmaceutical composition based thereon and methods for producing glutarimide derivatives” (OBSCHESTVO S OGRANICHENNOI OTVETSTVENNOSTIYU …, priority 2013, dated 2018)

Key:
[1] = system: mucous membrane of nasal passages, formalin-induced acute rhinosinusitis; assay: Acute rhinosinusitis rat model (induced by intranasal 7.5% formalin solution); format: in vivo, Wistar rats; conditions: rats; for The number of caliciform cells within 1 mm of the mucous membrane of the nasal septum: tested compounds 27 mg/kg for 7 days after induction, M ± m; for Macroscopic changes in the mucous membrane of nasal passages: Muculent or mucopurulent catarrh (number of animals) / Macroscopic changes in the mucous membrane of nasal passages: Without changes (number of animals): tested compounds 27 mg/kg for 7 days, count out of n of the group
Protocol: Morphological studies of histologic preparations were conducted with a Leica DMLS light-optical microscope (Leica Microsystems, Germany). Micro-morphometric assessment was performed by using an ocular micrometer on a Leica DMLB microscope.
Acute rhinosinusitis was induced by intranasal administration of 20 μl of 7.5% formalin solution (aqueous solution comprising 40% formaldehyde, 8% methyl alcohol, and 52% water) to each nasal passage of rats.
Administration of formalin to rat nasal passages leads to the dissemination of inflammation to adjacent tissues, resulting in a clinical pattern similar to the symptoms of rhinosinusitis in a human.
After an acclimatization period, the following groups were formed: • intact animals administered intragastrically a saline solution in an amount of 0.2 ml, the induction of acute rhinosinusitis was not performed; • a control group consisted of the animals administered intragastrically a saline solution in an amount of 0.2 ml for 7 days after induction of acute rhinosinusitis; • animals administered intramuscularly dexamethasone at a dose of 0.33 mg/kg for 7 days after induction of acute rhinosinusitis; and • animals administered the tested compounds at a dose of 27 mg/kg for 7 days after induction of acute rhinosinusitis.
Clinical observation of each animal was performed every day at least twice daily.
In the experiment with Wistar rats, the induction of acute rhinosinusitis by administration of a 7.5% formalin solution to nasal passages caused in the control group of animals pronounced pathological changes characterizing the development of an acute inflammation process in the nasal mucous. The caused pathology was characterized by congestion, hyperplasia, focal necrosis of the nasal meatus mucous membrane, an increased number of caliciform cells, pronounced infiltration by mononuclear cells and leucocytes, and mucus hyperproduction by submucosal glands.
The mucous and submucous membranes of both nasal passages (respiratory and olfactory regions) of the experimental animals were subjected to a morphological analysis to evaluate a specific activity of the compounds.
For microscopic examination, the sections were stained with hematoxylin and eosin. Detection of acid mukopolysaccharides, the production of which is increased in an inflammation, was performed by histochemical staining of the preparation with Alcian Blue (pH 2.5). The comparison and histological evaluation of changes were performed versus the group of intact rats.
After slaughter, the gross appearance of inflammation in the nasal passages was studied in each animal. Histological, hystochemical and morphological studies of rats were intended to evaluate the following characteristics of nasal passages: congestion of the mucous membrane; hyperplasia and necrosis of nasal epithelium, the number of caliciform cells within 1 mm of the mucous membrane of the nasal septum, and the character of inflammation.
In this study, the efficiency of the mucociliary system was evaluated by the number of caliciform cells and, as a consequence, microscopic changes in the mucous membrane of the nasal passages.

[2] = system: human respiratory syncytial virus (strain A2, ATCC VR-1540); format: in vivo; conditions: Balb/c mice, cyclophosphan 100 mg/kg 5 days before infection; 30 mg/kg once daily for 5 days from 24 h; score from possible 4; M ± SD, n = 5
[3] = system: hRV strain (GKV reg. No. 2730); assay: Antiviral activity against rhinovirus in mice (body weight, lung weight, infectious titer in lungs); format: in vivo; conditions: for Body weight of the mice after infection with hRV, day 0: 30 mg/kg orally once daily for 5 days starting 12 hours after infection; for Body weight of the mice after infection with hRV, day 1 / Body weight of the mice after infection with hRV, day 2 / Lung weight of the mice after infection with hRV, day 2 / Body weight of the mice after infection with hRV, day 3 / Lung weight of the mice after infection with hRV, day 3 / Body weight of the mice after infection with hRV, day 4 / Lung weight of the mice after infection with hRV, day 4: 30 mg/kg orally once daily; for Body weight of the mice after infection with hRV, day 1: day 1 after infection; for Body weight of the mice after infection with hRV, day 2 / Lung weight of the mice after infection with hRV, day 2: day 2 after infection; for Body weight of the mice after infection with hRV, day 3 / Lung weight of the mice after infection with hRV, day 3: day 3 after infection; for Body weight of the mice after infection with hRV, day 4 / Lung weight of the mice after infection with hRV, day 4: day 4 after infection; for Suppression of the reproduction of the virus in mouse lungs, Δ lg, Day 2 after infection / Suppression of the reproduction of the virus in mouse lungs, Δ lg, Day 3 after infection / Suppression of the reproduction of the virus in mouse lungs, Δ lg, Day 4 after infection / Infectious titer of the virus in lungs, lg TCID50, Day 2 after infection / Infectious titer of the virus in lungs, lg TCID50, Day 3 after infection / Infectious titer of the virus in lungs, lg TCID50, Day 4 after infection: 30 mg/kg orally; for Suppression of the reproduction of the virus in mouse lungs, Δ lg, Day 2 after infection / Suppression of the reproduction of the virus in mouse lungs, Δ lg, Day 3 after infection / Suppression of the reproduction of the virus in mouse lungs, Δ lg, Day 4 after infection: difference control minus experimental group; for Infectious titer of the virus in lungs, lg TCID50, Day 2 after infection / Infectious titer of the virus in lungs, lg TCID50, Day 3 after infection / Infectious titer of the virus in lungs, lg TCID50, Day 4 after infection: lung suspension titrated in Hela cell culture
[4] = system: influenza virus strain A/California/07/09 (H1N1) pdm09; assay: animal or person; format: in vivo, white outbred female mice; conditions: unidentified influenza virus, H1N1, in Mus musculus, po, 336 h, read-out: Mortality rate, %
[5] = system: Coxsackie A2-virus (strain HCXV A2); assay: Antiviral activity against Coxsackie virus in vivo (mortality of infected mice); parameters: species or system white mice; conditions: mice; for inhibition in vivo at 30 mg/kg / mortality at 30 mg/kg: Mus musculus, po; for inhibition in vivo at 30 mg/kg: 168 h, read-out: Protective index (%); for inhibition in vivo at 30 mg/kg / Average expectancy life (days), Relative / Average expectancy life (days), Vs. control: 10LD50 HCXV A2, 30 mg/kg orally once daily for 7 days; for mortality at 30 mg/kg: 360 h, 10LD50 HCXV A2 i.m., 30 mg/kg orally once daily for 7 days from 24 h after infection, 15 days monitoring, read-out: Total mortality rate, %; for Average expectancy life (days), Vs. control: difference to virus control

O=C1CCCC(=O)N1CCc1cnc[nH]1 [Compound 1, 1-(2-(1H-imidazol-4-yl)ethyl)piperidine-2,6-dione]
The number of caliciform cells within 1 mm of the mucous membrane of the nasal septum [1]: 31.2 ± 1.2 | Macroscopic changes in the mucous membrane of nasal passages: Muculent or mucopurulent catarrh (number of animals) [1]: 13 | Macroscopic changes in the mucous membrane of nasal passages: Without changes (number of animals) [1]: 5 | Degree of pulmonary edema on day 5 after infection, score [2]: 1.3 ± 0.27 score | Body weight of the mice after infection with hRV, day 0 [3]: 7.36 ± 0.97 | Body weight of the mice after infection with hRV, day 1 [3]: 8.2 ± 4.25 | Body weight of the mice after infection with hRV, day 2 [3]: 13.03 ± 3.51 | Lung weight of the mice after infection with hRV, day 2 [3]: 136.9 ± 5.93 | Body weight of the mice after infection with hRV, day 3 [3]: 13.47 ± 1.36 | Lung weight of the mice after infection with hRV, day 3 [3]: 140.8 ± 5.14 | Body weight of the mice after infection with hRV, day 4 [3]: 13.99 ± 1.53 | Lung weight of the mice after infection with hRV, day 4 [3]: 128.2 ± 5.81 | Suppression of the reproduction of the virus in mouse lungs, Δ lg, Day 2 after infection [3]: 1.1 ± 0.49 Δ lg | Suppression of the reproduction of the virus in mouse lungs, Δ lg, Day 3 after infection [3]: 1.7 ± 0.31 Δ lg | Suppression of the reproduction of the virus in mouse lungs, Δ lg, Day 4 after infection [3]: 2.18 ± 0.08 Δ lg | Infectious titer of the virus in lungs, lg TCID50, Day 2 after infection [3]: 2.9 ± 0.49 lg TCID50 | Infectious titer of the virus in lungs, lg TCID50, Day 3 after infection [3]: 0.8 ± 0.31 lg TCID50 | Infectious titer of the virus in lungs, lg TCID50, Day 4 after infection [3]: 0.03 ± 0.08 lg TCID50 | mortality at 30 mg/kg [4]: 35%

CC1(C)CC(=O)N(CCc2cnc[nH]2)C(=O)C1 [Compound 3]
The number of caliciform cells within 1 mm of the mucous membrane of the nasal septum [1]: 35.8 ± 0.9 | Macroscopic changes in the mucous membrane of nasal passages: Muculent or mucopurulent catarrh (number of animals) [1]: 7 | Macroscopic changes in the mucous membrane of nasal passages: Without changes (number of animals) [1]: 5 | Degree of pulmonary edema on day 5 after infection, score [2]: 1.6 ± 0.89 score

O=C1CCCC(=O)N1CCC1CCCN1 (stereo not drawn) [Compound 4]
Degree of pulmonary edema on day 5 after infection, score [2]: 1.95 ± 0.31 score | Body weight of the mice after infection with hRV, day 0 [3]: 7.77 ± 1.02 | Body weight of the mice after infection with hRV, day 1 [3]: 7.27 ± 1.27 | Body weight of the mice after infection with hRV, day 2 [3]: 12.66 ± 2.32 | Lung weight of the mice after infection with hRV, day 2 [3]: 142 ± 4.81 | Body weight of the mice after infection with hRV, day 3 [3]: 13.14 ± 1.5 | Lung weight of the mice after infection with hRV, day 3 [3]: 135.9 ± 4.18 | Body weight of the mice after infection with hRV, day 4 [3]: 13.23 ± 1.38 | Lung weight of the mice after infection with hRV, day 4 [3]: 134.2 ± 3.68 | Suppression of the reproduction of the virus in mouse lungs, Δ lg, Day 2 after infection [3]: 1.65 ± 0.65 Δ lg | Suppression of the reproduction of the virus in mouse lungs, Δ lg, Day 3 after infection [3]: 1.9 ± 0.27 Δ lg | Suppression of the reproduction of the virus in mouse lungs, Δ lg, Day 4 after infection [3]: 2.2 ± 4.68 Δ lg | Infectious titer of the virus in lungs, lg TCID50, Day 2 after infection [3]: 2.35 ± 0.65 lg TCID50 | Infectious titer of the virus in lungs, lg TCID50, Day 3 after infection [3]: 0.6 ± 0.27 lg TCID50 | Infectious titer of the virus in lungs, lg TCID50, Day 4 after infection [3]: 0 ± 0 lg TCID50 | mortality at 30 mg/kg [4]: 65%

Cn1cnc(CCN2C(=O)CCCC2=O)c1 [Compound 5]
Degree of pulmonary edema on day 5 after infection, score [2]: 1.10 ± 0.19 score | mortality at 30 mg/kg [4]: 45%

O=C1CCCC(=O)N1CCc1nccs1 [Compound 6]
The number of caliciform cells within 1 mm of the mucous membrane of the nasal septum [1]: 36.5 ± 0.8 | Macroscopic changes in the mucous membrane of nasal passages: Muculent or mucopurulent catarrh (number of animals) [1]: 4 | Macroscopic changes in the mucous membrane of nasal passages: Without changes (number of animals) [1]: 2 | Degree of pulmonary edema on day 5 after infection, score [2]: 0.90 ± 0.22 score

O=C1CCCC(=O)N1CCc1ccncc1 [Compound 9]
Degree of pulmonary edema on day 5 after infection, score [2]: 1.00 ± 0.17 score

CC1(C)CCC(=O)N(CCc2c[nH]cn2)C1=O [Compound 20]
Macroscopic changes in the mucous membrane of nasal passages: Muculent or mucopurulent catarrh (number of animals) [1]: 4 | Macroscopic changes in the mucous membrane of nasal passages: Without changes (number of animals) [1]: 4 | mortality at 30 mg/kg [4]: 50%

O=C1CCCC(=O)N1CCN1CCCC1 [Compound 23]
inhibition in vivo at 30 mg/kg [5]: 36% | mortality at 30 mg/kg [5]: 50% | Average expectancy life (days), Relative [5]: 23.8 days | Average expectancy life (days), Vs. control [5]: +13.1 days | mortality at 30 mg/kg [4]: 40%

O=C1CCCC(=O)N1CCn1ccnc1 [Compound 30]
inhibition in vivo at 30 mg/kg [5]: 18% | mortality at 30 mg/kg [5]: 60% | Average expectancy life (days), Relative [5]: 13.1 days | Average expectancy life (days), Vs. control [5]: +2.4 days | mortality at 30 mg/kg [4]: 50%

O=C1CCCC(=O)N1CCc1cn[nH]n1 [Compound 35]
inhibition in vivo at 30 mg/kg [5]: 27% | mortality at 30 mg/kg [5]: 53.3% | Average expectancy life (days), Relative [5]: 16.6 days | Average expectancy life (days), Vs. control [5]: +5.9 days | mortality at 30 mg/kg [4]: 55%

O=C1CCCC(=O)N1CCc1nnn[nH]1 [Compound 36]
inhibition in vivo at 30 mg/kg [5]: 27% | mortality at 30 mg/kg [5]: 53.3% | Average expectancy life (days), Relative [5]: 16.7 days | Average expectancy life (days), Vs. control [5]: +6.0 days | mortality at 30 mg/kg [4]: 60%

O=C1CCCC(=O)N1CCC1CCNC1 (stereo not drawn) [Compound 120]
Degree of pulmonary edema on day 5 after infection, score [2]: 1.05 ± 0.14 score

O=C1CCCC(=O)N1CCC1CCCNC1 (stereo not drawn) [Compound 121]
Degree of pulmonary edema on day 5 after infection, score [2]: 0.90 ± 0.21 score

O=C1CCCC(=O)N1CCC1CCNCC1 [Compound 123]
Degree of pulmonary edema on day 5 after infection, score [2]: 1.30 ± 0.17 score
